Consider six compounds from patent US20100249161A1, “2- ( 2 -HYDROXYPHENYL) -QUINAZOLIN-4-ONES USEFUL FOR TREATING OBESITY AND DIABETES” (priority 2006, published 2010).

The term melting point denotes the temperature of the solid-liquid transition. With `Cc1c(Cl)cc(C(C)(C)C)c(O)c1-c1nc2ccc(F)cc2c(=O)[nH]1` [Example 2, 2-(3-tert-Butyl-5-chloro-2-hydroxy-6-methyl-phenyl)-6-fluoro-3H-quinazolin-4-one], the melting point fell in the range of 224 to 225 °C. Take `Cc1c(F)cc(C(C)(C)C)c(O)c1-c1nc2ccc(F)cc2c(=O)[nH]1` [Example 3, 2-(-3-tert-Butyl-5-fluoro-2-hydroxy-6-methyl-phenyl)-6-fluoro-3H-quinazolin-4-one]: the melting point was in the range of 247 to 248 °C. The same measure for `Cc1c(Cl)cc(C(C)(C)C)c(O)c1-c1nc2ccc(S(=O)(=O)C(F)(F)F)cc2c(=O)[nH]1` [Example 4, 2-(3-tert-Butyl-5-chloro-2-hydroxy-6-methyl-phenyl)-6-trifluoromethanesulfonyl-3H-quinazolin-4-one]: 297 to 298 °C; for `Cc1c(F)cc(C(C)(C)C)c(O)c1-c1nc2ccc(S(=O)(=O)C(F)(F)F)cc2c(=O)[nH]1` [Example 6, 2-(3-tert-Butyl-5-fluoro-2-hydroxy-6-methyl-phenyl)-6-trifluoromethanesulfonyl-3H-quinazolin-4-one]: 257 to 258 °C; for `CC(C)(C)c1cc2c(c(-c3nc4ccc(S(=O)(=O)C(F)(F)F)cc4c(=O)[nH]3)c1O)CCO2` [Example 7, 2-(6-tert-Butyl-5-hydroxy-2,3-dihydro-benzofuran-4-yl)-6-trifluoromethanesulfonyl-3H-quinazolin-4-one]: 235 to 237 °C. Regarding `CCc1c(Cl)cc(C(C)(C)C)c(O)c1-c1nc2ccc(S(=O)(=O)C(F)(F)F)cc2c(=O)[nH]1` [Example 8, 2-(-3-tert-Butyl-5-chloro-2-hydroxy-6-ethyl-phenyl)-6-trifluoromethanesulfonyl-3H-quinazolin-4-one], the melting point lay within 285 to 286 °C.
